# Measured values reported in patent US9187472B2 (AbbVie Inc., priority 2012, dated 2015).
# Columns and labels:
# [1] = target: NAMPT (human, recombinant, C-terminally His-tagged) (Homo sapiens, UniProt P43490); experiment: Time-Resolved Fluorescence Resonance Energy Transfer (TR-FRET) Binding Assay of NAMPT; conditions: without substrates; 6.8 nM NAMPT, 200 nM probe, 3 hours equilibration
# Procedure: Determination of the utility of compounds having Formula (I) as binders to and inhibitors of NAMPT was performed using Time-Resolved Fluorescence Resonance Energy Transfer (TR-FRET) binding assays.
# Time-Resolved Fluorescence Resonance Energy Transfer (TR-FRET) Binding Assay of NAMPT
# Test compounds were serially diluted (typically 11 half log dilutions) in neat DMSO to 50× final concentrations prior to dilution with assay buffer (50 mM HEPES (NaOH), pH 7.5, 100 mM NaCl, 10 mM MgCl2, 1 mM DTT, 1% Glycerol) to 3× and 6% DMSO. Six μL were transferred to 384-well low-volume plates (Owens Corning #3673). To this, […] of a 1.5× solution containing enzyme, probe and antibody were added. Final concentrations in the 18 μL, reactions were 1× assay buffer, 2% DMSO, 6.8 nM NAMPT (human, recombinant, C-terminally His-tagged), 200 nM probe (a potent nicotinamide-competitive inhibitor conjugated to Oregon Green 488) and 1 nM Tb-anti-His antibody (Invitrogen # PV5895). Reactions were equilibrated at room temperature for 3 hours prior to reading on an Envision multi-label plate reader (Perkin Elmer; Ex=337 nm, Em=520 and 495 nm). Time-resolved FRET ratios (Em520/Em495) were normalized to controls, plotted as a function of compound concentration and fit with the four-parameter logistic equation to determine IC50s.
# NAMPT = NAMPT (Homo sapiens, UniProt P43490); experiment: TR-FRET Binding Assay of NAMPT with PRPP; conditions: with 200 μM PRPP and 2.5 mM ATP; 2 nM NAMPT, 2 nM probe, 16 hours equilibration
# Procedure: Time-Resolved Fluorescence Resonance Energy Transfer (TR-FRET) Binding Assay of NAMPT with PRPP
# Compound handling and data processing were identical to the assay in the absence of substrates (above). Final concentrations were 1× assay buffer, 2% DMSO, 2 nM NAMPT, 2 nM probe, 1 nM Tb-anti-His antibody (Invitrogen # PV5895), 200 μM PRPP and 2.5 mM ATP. Reactions were equilibrated for 16 hours prior to measurement to allow for potential enzymatic modification of test compounds.
# PC3 cells = experiment: NAMPT Cell Proliferation Assay; format: cell-based; conditions: Homo sapiens, PC-3, 120 h, 5 days incubation, cell viability by Cell Titer Glo
# In short: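 Following overnight attachment in RPMI with 10% heat-inactivated FBS, PC3 cells at 500 per well receive compounds spanning 10 μM down to 1×10^−5 μM. Growth is assessed by luminescent viability read after 5 days.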
# Sequence of NAMPT (P43490 whole entry): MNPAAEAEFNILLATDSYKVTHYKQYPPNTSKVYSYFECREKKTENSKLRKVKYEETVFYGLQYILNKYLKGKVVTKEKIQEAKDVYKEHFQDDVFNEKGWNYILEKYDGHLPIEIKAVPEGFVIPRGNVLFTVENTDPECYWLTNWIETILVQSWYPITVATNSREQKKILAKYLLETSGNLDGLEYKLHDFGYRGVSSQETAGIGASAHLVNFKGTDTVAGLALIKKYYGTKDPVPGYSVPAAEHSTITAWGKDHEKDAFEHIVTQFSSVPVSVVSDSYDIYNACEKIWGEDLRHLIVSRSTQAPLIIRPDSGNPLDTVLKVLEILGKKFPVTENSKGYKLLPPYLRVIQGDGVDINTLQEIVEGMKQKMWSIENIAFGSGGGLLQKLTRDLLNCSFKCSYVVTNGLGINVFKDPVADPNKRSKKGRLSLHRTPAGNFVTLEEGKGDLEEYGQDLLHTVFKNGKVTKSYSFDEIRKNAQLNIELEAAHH
# Sequence of NAMPT (human, recombinant, C-terminally His-tagged) (P43490 whole entry): as above
IC50 [1] [nM],IC50 (NAMPT) [nM],IC50 (PC3 cells) [nM],SMILES
40.9,0.217,70.8,O=C(CC1CCOCC1)Nc1ccc(NC(=O)Nc2ccc3nccn3c2)cc1 [Example 40]
294,1.15,138,O=C(CN1CCOCC1)Nc1ccc(NC(=O)Nc2ccc3nccn3c2)cc1 [Example 41]
773,0.318,6280,O=C(Nc1ccc(NC(=O)C2CCOCC2)cc1)Nc1ccc2nccn2c1 [Example 46]
1640,0.817,6140,O=C(Nc1ccc(NC(=O)C2COCCO2)cc1)Nc1ccc2nccn2c1 (stereo not drawn) [Example 50]
523,1.43,52.6,"CC(C)(C)OC(=O)N1CCC(CCCCNC(=O)Nc2ccc3nccn3c2)CC1 [Example 58, tert-butyl 4-{4-[(imidazo[1,2-a]pyridin-6-ylcarbamoyl)amino]butyl}piperidine-1-carboxylate]"
250,0.456,16.5,"CC(C)OCC(=O)N1CCC(CCCCNC(=O)Nc2ccc3nccn3c2)CC1 [Example 62, 1-imidazo[1,2-a]pyridin-6-yl-3-(4-{1-[(propan-2-yloxy)acetyl]piperidin-4-yl}butyl)urea]"
636,0.283,16.8,"O=C(NCCCCC1CCN(C(=O)C2COCCO2)CC1)Nc1ccc2nccn2c1 (stereo not drawn) [Example 63, 1-{4-[1-(1,4-dioxan-2-ylcarbonyl)piperidin-4-yl]butyl}-3-imidazo[1,2-a]pyridin-6-ylurea]"
518,0.495,19.8,"O=C(NCCCCC1CCN(C(=O)CC2CC2)CC1)Nc1ccc2nccn2c1 [Example 64, 1-{4-[1-(cyclopropylacetyl)piperidin-4-yl]butyl}-3-imidazo[1,2-a]pyridin-6-ylurea]"
773,0.685,65.6,"O=C(NCCCCC1CCN(C(=O)CCC(F)(F)F)CC1)Nc1ccc2nccn2c1 [Example 65, 1-imidazo[1,2-a]pyridin-6-yl-3-{4-[1-(4,4,4-trifluorobutanoyl)piperidin-4-yl]butyl}urea]"
386,0.476,53.8,"O=C(NCCCCC1CCN(C(=O)C2CCCC2)CC1)Nc1ccc2nccn2c1 [Example 68, 1-{4-[1-(cyclopentylcarbonyl)piperidin-4-yl]butyl}-3-imidazo[1,2-a]pyridin-6-ylurea]"
676,0.268,16.6,"O=C(NCCCCC1CCN(C(=O)C2CCOCC2)CC1)Nc1ccc2nccn2c1 [Example 69, 1-imidazo[1,2-a]pyridin-6-yl-3-{4-[1-(tetrahydro-2H-pyran-4-ylcarbonyl)piperidin-4-yl]butyl}urea]"
710,0.616,27.8,"COCCOCC(=O)N1CCC(CCCCNC(=O)Nc2ccc3nccn3c2)CC1 [Example 70, 1-imidazo[1,2-a]pyridin-6-yl-3-(4-{1-[(2-methoxyethoxy)acetyl]piperidin-4-yl}butyl)urea]"
754,0.348,66.7,"O=C(NCCCCC1CCN(C(=O)CN2CCOCC2)CC1)Nc1ccc2nccn2c1 [Example 71, 1-imidazo[1,2-a]pyridin-6-yl-3-{4-[1-(morpholin-4-ylacetyl)piperidin-4-yl]butyl}urea]"

# Further lines, the compound ahead of its results:
SMILES,IC50 [1] [nM],IC50 (NAMPT) [nM],IC50 (PC3 cells) [nM]
"CC(C)C(=O)N1CC=C(c2ccc(NC(=O)Nc3ccc4nccn4c3)cc2)CC1 [Example 38, 1-imidazo[1,2-a]pyridin-6-yl-3-{4-[1-(2-methylpropanoyl)-1,2,3,6-tetrahydropyridin-4-yl]phenyl}urea]",243,0.266,65.9
"CCOCC(=O)Nc1ccc(NC(=O)Nc2ccc3nccn3c2)cc1 [Example 39, 2-ethoxy-N-{4-[(imidazo[1,2-a]pyridin-6-ylcarbamoyl)amino]phenyl}acetamide]",814,0.26,7280
"COCCOCC(=O)Nc1ccc(NC(=O)Nc2ccc3nccn3c2)cc1 [Example 42, N-{4-[(imidazo[1,2-a]pyridin-6-ylcarbamoyl)amino]phenyl}-2-(2-methoxyethoxy)acetamide]",697,0.381,1590
COCC(C)C(=O)Nc1ccc(NC(=O)Nc2ccc3nccn3c2)cc1 (stereo not drawn) [Example 43],4350,0.169,7450
CCCC(=O)Nc1ccc(NC(=O)Nc2ccc3nccn3c2)cc1 [Example 44],396,0.496,1580
"O=C(CCC(F)(F)F)Nc1ccc(NC(=O)Nc2ccc3nccn3c2)cc1 [Example 45, 4,4,4-trifluoro-N-{4-[(imidazo[1,2-a]pyridin-6-ylcarbamoyl)amino]phenyl}butanamide]",879,1.19,2070
"CC(C)CCC(=O)Nc1ccc(NC(=O)Nc2ccc3nccn3c2)cc1 [Example 47, N-{4-[(imidazo[1,2-a]pyridin-6-ylcarbamoyl)amino]phenyl}-4-methylpentanamide]",57.5,0.62,64.8
CN1CCC(C(=O)Nc2ccc(NC(=O)Nc3ccc4nccn4c3)cc2)CC1 [Example 48],> 10000,0.169,5320
O=C(Nc1ccc(NC(=O)C2CCS(=O)(=O)CC2)cc1)Nc1ccc2nccn2c1 [Example 49],442,0.317,7040
"CC(C)Cn1cc(-c2ccc(NC(=O)Nc3ccc4nccn4c3)cc2)cn1 [Example 51, 1-imidazo[1,2-a]pyridin-6-yl-3-{4-[1-(2-methylpropyl)-1H-pyrazol-4-yl]phenyl}urea]",264,0.524,83
"O=C(CC1CCCC1)Nc1ccc(C(=O)NCc2ccc3nccn3c2)cc1 [Example 52, 4-[(cyclopentylacetyl)amino]-N-(imidazo[1,2-a]pyridin-6-ylmethyl)benzamide]",18.6,5.79,4.07
"CC(C)CC(=O)N(Cc1ccc(C#N)cc1)c1ncc(C(=O)Nc2ccc3nccn3c2)s1 [Example 53, 2-[(4-cyanobenzyl)(3-methylbutanoyl)amino]-N-(imidazo[1,2-a]pyridin-6-yl)-1,3-thiazole-5-carboxamide]",4450,14.4,3300
"COCCC(=O)N(Cc1ccc(C#N)cc1)c1ncc(C(=O)Nc2ccc3nccn3c2)s1 [Example 54, 2-[(4-cyanobenzyl)(3-methoxypropanoyl)amino]-N-(imidazo[1,2-a]pyridin-6-yl)-1,3-thiazole-5-carboxamide]",363,2.55,303
"CC(C)CC(=O)N(Cc1ccc(C#N)cc1)c1ncc(C(=O)NCc2ccc3nccn3c2)s1 [Example 55, 2-[(4-cyanobenzyl)(3-methylbutanoyl)amino]-N-(imidazo[1,2-a]pyridin-6-ylmethyl)-1,3-thiazole-5-carboxamide]",364,1.37,14.6
"COCCC(=O)N(Cc1ccc(C#N)cc1)c1ncc(C(=O)NCc2ccc3nccn3c2)s1 [Example 56, 2-[(4-cyanobenzyl)(3-methoxypropanoyl)amino]-N-(imidazo[1,2-a]pyridin-6-ylmethyl)-1,3-thiazole-5-carboxamide]",158,1.07,8.86
"CC(C)CCNC(=O)c1ccc(NC(=O)NCc2ccc3nccn3c2)cc1 [Example 59, 4-{[(imidazo[1,2-a]pyridin-6-ylmethyl)carbamoyl]amino}-N-(3-methylbutyl)benzamide]",222,0.695,143
"O=C(CC1CCCC1)Nc1ccc(NC(=O)NCc2ccc3nccn3c2)cc1 [Example 60, 2-cyclopentyl-N-(4-{[(imidazo[1,2-a]pyridin-6-ylmethyl)carbamoyl]amino}phenyl)acetamide]",8.61,1.49,9.58
"COCCC(=O)N(CCC(C)C)c1ncc(C(=O)NCc2ccc3nccn3c2)s1 [Example 61, N-(imidazo[1,2-a]pyridin-6-ylmethyl)-2-[(3-methoxypropanoyl)(3-methylbutyl)amino]-1,3-thiazole-5-carboxamide]",78.2,0.549,6.01
